# Measured values as given in PubChem BioAssay AID2060886 (Molecular Pharmacology Branch, DTP, NCI, 2025).
# Tested on: 653999-131-R-J2-PDC complex spheroids, growth inhibition
# Test: Anticancer human tumor 653999-131-R-J2-PDC patient-derived lung adenocarcinoma cell line growth inhibition [RAS]
# Details: for IC50: curve of first compound; for viability, T/C: stronger effect = lower value
# In short: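 Multi-cell-type spheroids: tumor cells plus HUVEC endothelial cells and mesenchymal stem cells. RAS-pathway inhibitors were combined with targeted agents, each dosed in half-log steps down from clinical Cmax, or from 10 microM when Cmax was unknown.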
# 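Also: spheroids exposed to the agents for seven days before the readout.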
compound,measurement,setting,value
NC1c2ccccc2OC12CCN(c1cnc3c(N4CCCc5ncccc54)n[nH]c3n1)CC2 (configuration not stated) + C=CC(=O)N1CCN(c2nc(OCC3CCCN3C)nc3c(F)c(-c4nc(N)cc(C)c4C(F)(F)F)c(Cl)cc23)C(C)C1,IC50,second compound 0.00316 µM,> 10 µM
same,IC50,second compound 0.01 µM,> 10 µM
same,IC50,second compound 0.0316 µM,> 10 µM
same,IC50,second compound 0.1 µM,> 10 µM
same,IC50,second compound 0.316 µM,> 10 µM
same,IC50,second compound 1 µM,> 10 µM
same,"viability, T/C","second compound 0.00316 µM, first compound 0.0316 µM",69.5%
same,"viability, T/C","second compound 0.00316 µM, first compound 0.1 µM",70.1%
same,"viability, T/C","second compound 0.00316 µM, first compound 0.316 µM",80.6%
same,"viability, T/C","second compound 0.00316 µM, first compound 1 µM",79.7%
same,"viability, T/C","second compound 0.00316 µM, first compound 3.16 µM",70.5%
same,"viability, T/C","second compound 0.00316 µM, first compound 10 µM",64.6%
same,"viability, T/C","second compound 0.01 µM, first compound 0.0316 µM",78.4%
same,"viability, T/C","second compound 0.01 µM, first compound 0.1 µM",75.2%
same,"viability, T/C","second compound 0.01 µM, first compound 0.316 µM",78.5%
same,"viability, T/C","second compound 0.01 µM, first compound 1 µM",89.3%
same,"viability, T/C","second compound 0.01 µM, first compound 3.16 µM",68.6%
same,"viability, T/C","second compound 0.01 µM, first compound 10 µM",69.9%
same,"viability, T/C","second compound 0.0316 µM, first compound 0.0316 µM",76.5%
same,"viability, T/C","second compound 0.0316 µM, first compound 0.1 µM",77.7%
same,"viability, T/C","second compound 0.0316 µM, first compound 0.316 µM",82.5%
same,"viability, T/C","second compound 0.0316 µM, first compound 1 µM",67.8%
same,"viability, T/C","second compound 0.0316 µM, first compound 3.16 µM",86.4%
same,"viability, T/C","second compound 0.0316 µM, first compound 10 µM",81.6%
same,"viability, T/C","second compound 0.1 µM, first compound 0.0316 µM",97.8%
same,"viability, T/C","second compound 0.1 µM, first compound 0.1 µM",75%
same,"viability, T/C","second compound 0.1 µM, first compound 0.316 µM",70.2%
same,"viability, T/C","second compound 0.1 µM, first compound 1 µM",83.2%
same,"viability, T/C","second compound 0.1 µM, first compound 3.16 µM",76.6%
same,"viability, T/C","second compound 0.1 µM, first compound 10 µM",73.3%
same,"viability, T/C","second compound 0.316 µM, first compound 0.0316 µM",86%
same,"viability, T/C","second compound 0.316 µM, first compound 0.1 µM",89.8%
same,"viability, T/C","second compound 0.316 µM, first compound 0.316 µM",84.8%
same,"viability, T/C","second compound 0.316 µM, first compound 1 µM",65.5%
same,"viability, T/C","second compound 0.316 µM, first compound 3.16 µM",88.2%
same,"viability, T/C","second compound 0.316 µM, first compound 10 µM",73.2%
same,"viability, T/C","second compound 1 µM, first compound 0.0316 µM",76.6%
same,"viability, T/C","second compound 1 µM, first compound 0.1 µM",67.2%
same,"viability, T/C","second compound 1 µM, first compound 0.316 µM",87.9%
same,"viability, T/C","second compound 1 µM, first compound 1 µM",72.9%
same,"viability, T/C","second compound 1 µM, first compound 3.16 µM",85%
same,"viability, T/C","second compound 1 µM, first compound 10 µM",66.3%
